Values joined by “and” are separate entries in the source; they are usually repeats but may differ in a detail not shown here. Equal entries are not always repeated. Where two headings read alike, the source gives them in different places.
Columns and labels:
Assay type in all cases: in vivo
Digitaria sanguinalis = assay: Herbicidal action, visual scoring; details: post-emergence, scoring 4 weeks after application
Description: (§1) The herbicidal activity of the active substances or active substance mixtures was scored visually with the aid of the treated parcels in comparison with untreated control parcels. Damage to and development of all above-ground parts of plants was recorded here. Scoring was carried out on a percentage scale (100% action=all plants died; 50% action=50% of the plants and green plant parts died; 0% action=no discernible action=like control parcels. The mean of the scoring values of 4 parcels in each case was taken.
(§2) Seeds or rhizome pieces of monocotyledonous and dicotyledonous weeds are placed in sandy loam soil in pots, covered with soil and grown in the greenhouse under good growth conditions (temperature, humidity, water supply). Three weeks after sowing, the test plants in the three-leaf stage are treated with the compositions according to the invention. The compositions according to the invention which are formulated as wettable powders or as emulsion concentrates are sprayed in various dosages on the green parts of the plants at an application rate of 600 to 800 l of water/ha (converted). After the test plants have remained in the greenhouse for about 3 to 4 weeks under optimal growth conditions, the effect of the products is scored visually by comparison with untreated controls. When applied post-emergence, too, the compositions according to the invention have a good herbicidal activity against a broad spectrum of economically important grass weeds and broad-leaved weeds.
(§3) Crop plants were raised outdoors under natural outdoor conditions on plots in which seeds or rhizome sections of typical harmful plants had been sown or the natural weed infestation was used. The treatment with the compositions according to the invention was carried out after the emergence of the harmful plants and the crop plants, as a rule in the 2 to 4-leaf stage; in some cases (as indicated) the application of individual active substances or active substance combinations was carried out pre-emergence (cf. Example 1) or as a sequence treatment, in some cases pre-emergence and/or post-emergence.
(§4) After the application, e.g. 2, 4, 6 and 8 weeks after application, the action of the preparations was scored visually in comparison with untreated controls (cf. score in Example 1). […] The crop plants, however, were not damaged or were only insignificantly damaged as a result of the treatment with the herbicidal compositions.

corn = details: post-emergence
Description: as §1, §3, §4

[1] = system: CHEAL = Chenopodium album; assay: Herbicidal action, visual scoring; details: Table 9, post-emergence, scoring 3 weeks after application, g of A.S./ha by row: r6 120, r7 60, r8 30, r9 15, r10 60, r11 30, r12 15, r13 30 + 30, r14 15 + 30, r15 30 + 15, r16 2000, r17 1000, r18 500, r19 30 + 1000, r20 15 + 1000, r21 30 + 500
Description: as §1, §2, §3, §4

Ipomoea purpurea = assay: Herbicidal action, visual scoring; details: Table 1, post-emergence, scoring 3 weeks after application, g of A.S./ha: 45, 60, 75, 1000, 2000, 3000, 75 + 1000
Description: as §1, §2, §3, §4

[2] = system: POLCO = Polygonum convolvulus; assay: Herbicidal action, visual scoring; details: Table 15; post-emergence; scoring 4 weeks after application; g of A.S./ha by row: r6 30, r7 15, r8 7.5, r9 900, r10 450, r12 600, r14 20, r16 30 + 450, r17 7.5 + 900, r18 30 + 600, r19 7.5 + 600, r20 15 + 20, r21 7.5 + 20
Description: as §1, with “taken. […]” for “taken.”
as §3, §4

SOLNI = assay: Herbicidal action, visual scoring; details: Table 10, post-emergence, scoring 3 weeks after application, g of A.S./ha by row: r7 120, r8 60, r9 30, r10 15, r11 12, r12 6, r13 3, r14 30 + 6, r16 15 + 6, r18 30 + 3
Description: as §1, §2, §3, §4

[3] = Table 9, scoring 3 weeks after application, g of A.S./ha by row: r6 120, r7 60, r8 30, r9 15, r10 60, r11 30, r12 15, r13 30 + 30, r14 15 + 30, r15 30 + 15, r16 2000, r17 1000, r18 500, r19 30 + 1000, r20 15 + 1000, r21 30 + 500

CCc1cccc(CC)c1N(COC)C(=O)CCl [(B1.1.1), alachlor]
Herbicidal action Digitaria sanguinalis (Digitaria sanguinalis; Table 17, g of A.S./ha by row: r6 60, r7 30, r8 15, r9 2000, r10 1000, r11 500, r12 15 + 1000, r13 30 + 500, r14 2000, r15 1000, r16 500, r17 30 + 500, r18 15 + 500, r19 15 + 1000, 500 g A.S./ha): 40%
Herbicidal action Digitaria sanguinalis (Digitaria sanguinalis; Table 17, g of A.S./ha by row: r6 60, r7 30, r8 15, r9 2000, r10 1000, r11 500, r12 15 + 1000, r13 30 + 500, r14 2000, r15 1000, r16 500, r17 30 + 500, r18 15 + 500, r19 15 + 1000, 1000 g A.S./ha): 50%
Herbicidal action Digitaria sanguinalis (Digitaria sanguinalis; Table 17, g of A.S./ha by row: r6 60, r7 30, r8 15, r9 2000, r10 1000, r11 500, r12 15 + 1000, r13 30 + 500, r14 2000, r15 1000, r16 500, r17 30 + 500, r18 15 + 500, r19 15 + 1000, 2000 g A.S./ha): 65%
Damage on corn (corn; Table 17, scoring 4 weeks after application, g of A.S./ha by row: r6 60, r7 30, r8 15, r9 2000, r10 1000, r11 500, r12 15 + 1000, r13 30 + 500, r14 2000, r15 1000, r16 500, r17 30 + 500, r18 15 + 500, r19 15 + 1000): 0%

CCc1cccc(C)c1N(C(=O)CCl)C(C)COC (stereo not shown) [(B1.1.2), metolachlor]
Herbicidal action CHEAL [1]: 0%
Damage on corn (corn; [3]): 0%

CCNc1nc(Cl)nc(NC(C)C)n1 [(B1.2.1), atrazine]
Herbicidal action against Ipomoea purpurea (Ipomoea purpurea; 1000 g active substance per ha): 70%
Herbicidal action against Ipomoea purpurea (Ipomoea purpurea; 2000 g active substance per ha): 85%
Herbicidal action against Ipomoea purpurea (Ipomoea purpurea; 3000 g active substance per ha): 90%
Damage on corn (corn; Table 1, scoring 3 weeks after application, g of A.S./ha: 45, 60, 75, 1000, 2000, 3000, 75 + 1000): 0%

CCNc1nc(Cl)nc(NC(C)(C)C#N)n1 [(B1.2.3), cyanazine]
Damage on corn (corn; Table 14, scoring 4 weeks after application, g of A.S./ha by row: r6 30, r7 15, r8 7.5, r9 2200, r10 1100, r11 550, r12 7.5 + 2200, r13 7.5 + 1100): 12% and 5% and 15%

CC(C)N(C(=O)COc1nnc(C(F)(F)F)s1)c1ccc(F)cc1 [(B1.2.7), fluthiamid]
Herbicidal action Polygonum convolvulus [2]: 25%
Damage on corn (corn; Table 15, scoring 4 weeks after application, g of A.S./ha by row: r6 30, r7 15, r8 7.5, r9 900, r10 450, r12 600, r14 20, r16 30 + 450, r17 7.5 + 900, r18 30 + 600, r19 7.5 + 600, r20 15 + 20, r21 7.5 + 20): 0%

COc1cc(OC)nc(NC(=O)NS(=O)(=O)c2ncccc2C(=O)N(C)C)n1 [(B1.3.1), nicosulfuron]
Herbicidal action CHEAL ([1]; 15 g active substance/ha): 55%
Herbicidal action CHEAL ([1]; 30 g active substance/ha): 65%
Herbicidal action CHEAL ([1]; 60 g active substance/ha): 90%
Damage on corn (corn; [3]): 0%

CCS(=O)(=O)c1cccnc1S(=O)(=O)NC(=O)Nc1nc(OC)cc(OC)n1 [(B1.3.2), rimsulfuron]
Herbicidal action SOLNI (SOLNI; 3 g active substance per ha): 35%
Herbicidal action SOLNI (SOLNI; 6 g active substance per ha): 45%
Herbicidal action SOLNI (SOLNI; 12 g active substance per ha): 60%

CS(=O)(=O)c1ccc(C(=O)C2C(=O)CCCC2=O)c(Cl)c1 [(B1.4.2), sulcotrione]
Damage on corn (corn; Table 11, scoring 3 weeks after application, g of A.S./ha by row: r6 120, r7 60, r8 30, r9 15, r10 2000, r11 1000, r12 500, r13 30 + 1000, r14 15 + 1000, r15 30 + 500, r16 600, r17 300, r18 150, r19 30 + 300, r20 15 + 300, r21 30 + 150): 0%

CS(=O)(=O)c1cc(Cl)ccc1C(=O)c1cnoc1C1CC1 [(B1.4.6), isoxachlortole]
Herbicidal action Digitaria sanguinalis (Digitaria sanguinalis; Table 18, g of A.S./ha by row: r6 45, r7 22.5, r8 12.5, r9 25, r10 12.5, r12 12.5 + 25, r13 12.5 + 12.5, 12.5 g of A.S./ha): 30%
Herbicidal action Digitaria sanguinalis (Digitaria sanguinalis; Table 18, g of A.S./ha by row: r6 45, r7 22.5, r8 12.5, r9 25, r10 12.5, r12 12.5 + 25, r13 12.5 + 12.5, 25 g of A.S./ha): 45%
Damage on corn (corn; Table 18, scoring 4 weeks after application, g of A.S./ha by row: r6 45, r7 22.5, r8 12.5, r9 25, r12 12.5 + 25, r13 12.5 + 12.5): 12%

COc1cc(OC)n2nc(S(=O)(=O)Nc3c(Cl)ccc(C)c3Cl)nc2n1 [(B1.5.1), metosulam]
Herbicidal action Polygonum convolvulus [2]: 55%

O=C(O)c1nc(Cl)ccc1Cl [(B2.3.6), clopyralid]
Damage on corn (corn; Table 19, scoring 3 weeks after application, g of A.S./ha by row: r6 60, r7 30, r8 15, r9 120, r10 60, r11 30, r12 30 + 30, r13 30 + 60, r14 60 + 30): 0% and 3%

COc1nc(NC(=O)NS(=O)(=O)c2ccccc2C(F)(F)F)nc(C(F)(F)F)n1 [(B2.4.5), tritosulfuron]
Damage on corn (corn; Table 7, scoring 3 weeks after application, g of A.S./ha by row: r6 15, r7 30, r8 45, r9 60, r10 2.5, r11 5, r12 15 + 2.5, r13 15 + 5): 1%

Cc1cc(Cl)ccc1OCC(=O)O [(B2.5.2), MCPA]
Damage on corn (corn; Table 16, scoring 4 weeks after application, g of A.S./ha: 60, 30, 15, 1500, 750, 375, 30 + 750, 30 + 375, 15 + 750, 60 + 375): 6% and 0% and 10%

Source: patent publication US6486096B1, “Herbicidal compositions with acylated aminophenylsulfonylureas” (priority 1998, dated 2002)
